Counter-ions that a name gives are not always drawn.
Test system: HIV wild type (WTRVA)
Assay: HeLa cell assay, wild type virus (WTRVA)
Format: cell-based, HIV-1
Details: Human immunodeficiency virus 1, HeLa, HeLa cell assay; read-out: IC50 against WTRVA

Row | SMILES | IC50 [nM]
1 | CCc1cc(C#N)cc(Oc2c(Cl)ccc(CNC(=O)c3[nH]c(C)nc3Cl)c2F)n1 [Example 274, 4-Chloro-N-({4-chloro-3-[(4-cyano-6-ethyl-2-pyridinyl)oxy]-2-fluorophenyl}methyl)-2-methyl-1H-imidazole-5-carboxamide] | < 10
2 | N#Cc1cc(Oc2c(Cl)ccc(CNC(=O)c3[nH]cnc3Br)c2F)cc(C(F)(F)F)c1 [Example 286, 4-bromo-N-[(4-chloro-3-{[3-cyano-5-(trifluoromethyl)phenyl]oxy}-2-fluorophenyl)methyl]-1H-imidazole-5-carboxamide] | < 10
3 | CCc1cc(Cl)cc(Oc2c(Cl)ccc(CNC(=O)c3[nH]cnc3Cl)c2F)c1 [Example 290, 4-chloro-N-({4-chloro-3-[(3-chloro-5-ethylphenyl)oxy]-2-fluorophenyl}methyl)-1H-imidazole-5-carboxamide] | < 10
4 | N#C/C=C/c1cc(Cl)cc(Oc2c(Cl)ccc(CNC(=O)c3[nH]cnc3Cl)c2F)c1 [Example 291, 4-chloro-N-{[4-chloro-3-({3-chloro-5-[(E)-2-cyanoethenyl]phenyl}oxy)-2-fluorophenyl]methyl}-1H-imidazole-5-carboxamide] | < 10
5 | C#Cc1cc(Cl)cc(Oc2c(Cl)ccc(CNC(=O)c3[nH]cnc3Cl)c2F)c1 [Example 293, 4-chloro-N-({4-chloro-3-[(3-chloro-5-ethynylphenyl)oxy]-2-fluorophenyl}methyl)-1H-imidazole-5-carboxamide] | < 10
6 | Cc1nc(Cl)c(C(=O)NCc2ccc(Cl)c(Oc3cc(Br)cc(C#N)c3)c2F)[nH]1 [Example 299, N-({3-[(3-bromo-5-cyanophenyl)oxy]-4-chloro-2-fluorophenyl}methyl)-4-chloro-2-methyl-1H-imidazole-5-carboxamide] | < 10
7 | Cc1nc(Cl)c(C(=O)NCc2ccc(Cl)c(Oc3cc(C#N)cc(C(F)F)c3)c2F)[nH]1 [Example 300, 4-chloro-N-[(4-chloro-3-{[3-cyano-5-(difluoromethyl)phenyl]oxy}-2-fluorophenyl)methyl]-2-methyl-1H-imidazole-5-carboxamide trifluoroacetate] | < 10
8 | Cc1nc(Cl)c(C(=O)NCc2cc(C#N)c(Cl)c(Oc3cc(Cl)cc(C#N)c3)c2F)[nH]1 [Example 304, 4-chloro-N-({4-chloro-3-[(3-chloro-5-cyanophenyl)oxy]-5-cyano-2-fluorophenyl}methyl)-2-methyl-1H-imidazole-5-carboxamide trifluoroacetate] | < 10
9 | Cc1cc(C#N)cc(Oc2c(Cl)ccc(CNC(=O)c3[nH]c(C)nc3Cl)c2F)c1 [Example 305, 4-chloro-N-({4-chloro-3-[(3-cyano-5-methylphenyl)oxy]-2-fluorophenyl}methyl)-2-methyl-1H-imidazole-5-carboxamide trifluoroacetate] | < 10
10 | Cc1nc(Cl)c(C(=O)NCc2ccc(Cl)c(Oc3cc(Cl)cc(C#N)c3Cl)c2F)[nH]1 [Example 306, 4-chloro-N-({4-chloro-3-[(2,5-dichloro-3-cyanophenyl)oxy]-2-fluorophenyl}methyl)-2-methyl-1H-imidazole-5-carboxamide trifluoroacetate] | < 10
11 | N#Cc1cc(Oc2c(Cl)ccc(CNC(=O)c3[nH]c(N)nc3Cl)c2F)cc(C2CC2)c1 [Example 307, 2-amino-4-chloro-N-({4-chloro-3-[(3-cyano-5-cyclopropylphenyl)oxy]-2-fluorophenyl}methyl)-1H-imidazole-5-carboxamide trifluoroacetate] | < 10
12 | Cc1nc(Cl)c(C(=O)NCc2ccc(Cl)c(Oc3cc(C#N)cc(C4CC4)c3)c2F)[nH]1 [Example 308, 4-chloro-N-({4-chloro-3-[(3-cyano-5-cyclopropylphenyl)oxy]-2-fluorophenyl}methyl)-2-methyl-1H-imidazole-5-carboxamide trifluoroacetate] | < 10
13 | N#Cc1cc(Oc2c(Cl)ccc(CNC(=O)c3[nH]cnc3Cl)c2F)cc(C(F)F)c1 [Example 309, 4-chloro-N-[(4-chloro-3-{[3-cyano-5-(difluoromethyl)phenyl]oxy}-2-fluorophenyl)methyl]-1H-imidazole-5-carboxamide] | < 10
14 | C#Cc1cc(C#N)cc(Oc2c(Cl)ccc(CNC(=O)c3[nH]cnc3Cl)c2F)c1 [Example 310, 4-chloro-N-({4-chloro-3-[(3-cyano-5-ethynylphenyl)oxy]-2-fluorophenyl}methyl)-1H-imidazole-5-carboxamide] | < 10
15 | CN(C)Cc1cc(C#N)cc(Oc2c(Cl)ccc(CNC(=O)c3[nH]cnc3Cl)c2F)c1 [Example 311, 4-chloro-N-{[4-chloro-3-({3-cyano-5-[(dimethylamino)methyl]phenyl}oxy)-2-fluorophenyl]methyl}-1H-imidazole-5-carboxamide trifluoroacetate] | < 10
16 | CC#Cc1cc(C#N)cc(Oc2c(Cl)ccc(CNC(=O)c3[nH]cnc3Cl)c2F)c1 [Example 317, 4-chloro-N-[(4-chloro-3-{[3-cyano-5-(1-propyn-1-yl)phenyl]oxy}-2-fluorophenyl)methyl]-1H-imidazole-5-carboxamide] | < 10
17 | C[C@@H](O)C#Cc1cc(Cl)cc(Oc2c(Cl)ccc(CNC(=O)c3[nH]cnc3Cl)c2F)c1 [Example 319, 4-chloro-N-{[4-chloro-3-({3-chloro-5-[(3R)-3-hydroxy-1-butyn-1-yl]phenyl}oxy)-2-fluorophenyl]methyl}-1H-imidazole-5-carboxamide] | < 10
18 | N#Cc1cc(Oc2c(Cl)ccc(CNC(=O)c3[nH]c(N)nc3Cl)c2F)cc(C(F)F)c1 [Example 327, 2-amino-4-chloro-N-[(4-chloro-3-{[3-cyano-5-(difluoromethyl)phenyl]oxy}-2-fluorophenyl)methyl]-1H-imidazole-5-carboxamide trifluoroacetate] | < 10
19 | CCNc1nc(Cl)c(C(=O)NCc2ccc(Cl)c(Oc3cc(Cl)cc(C#N)c3)c2F)[nH]1 [Example 362, 4-chloro-N-({4-chloro-3-[(3-chloro-5-cyanophenyl)oxy]-2-fluorophenyl}methyl)-2-(ethylamino)-1H-imidazole-5-carboxamide trifluoroacetate] | < 10
20 | CNc1nc(Cl)c(C(=O)NCc2ccc(Cl)c(Oc3cc(Cl)cc(C#N)c3)c2F)[nH]1 [Example 363, 4-chloro-N-({4-chloro-3-[(3-chloro-5-cyanophenyl)oxy]-2-fluorophenyl}methyl)-2-(methylamino)-1H-imidazole-5-carboxamide trifluoroacetate] | < 10
21 | COc1cc(C#N)cc(Oc2c(Cl)ccc(CNC(=O)c3[nH]c(N)nc3Cl)c2F)c1 [Example 366, 2-amino-4-chloro-N-[(4-chloro-3-{[3-cyano-5-(methyloxy)phenyl]oxy}-2-fluorophenyl)methyl]-1H-imidazole-5-carboxamide trifluoroacetate] | < 10
22 | N#Cc1cc(Cl)cc(Oc2c(Cl)ccc(Cn3cnc4nc[nH]c4c3=O)c2F)c1 [Example 368, 3-chloro-5-({6-chloro-2-fluoro-3-[(6-oxo-6,7-dihydro-1H-purin-1-yl)methyl]phenyl}oxy)benzonitrile trifluoroacetate] | < 10
23 | N#Cc1cc(Cl)cc(Oc2c(Cl)ccc(Cn3cnc4cc[nH]c4c3=O)c2F)c1 [Example 369, 3-chloro-5-({6-chloro-2-fluoro-3-[(4-oxo-4,5-dihydro-3H-pyrrolo[3,2-d]pyrimidin-3-yl)methyl]phenyl}oxy)benzonitrile] | < 10
24 | C=CCc1cc(C#N)cc(Oc2c(Cl)ccc(Cn3cnc4nc[nH]c4c3=O)c2F)c1 [Example 373, 3-({6-chloro-2-fluoro-3-[(6-oxo-6,7-dihydro-1H-purin-1-yl)methyl]phenyl}oxy)-5-(2-propen-1-yl)benzonitrile] | < 10
25 | N#Cc1cc(Oc2c(Cl)ccc(CNC(=O)c3[nH]cnc3Br)c2F)cc(C(F)F)c1 [Example 375, 4-bromo-N-[(4-chloro-3-{[3-cyano-5-(difluoromethyl)phenyl]oxy}-2-fluorophenyl)methyl]-1H-imidazole-5-carboxamide] | < 10
26 | N#Cc1cc(Cl)cc(Oc2c(Br)ccc(CNC(=O)c3[nH]cnc3Br)c2F)c1 [Example 377, 4-bromo-N-({4-bromo-3-[(3-chloro-5-cyanophenyl)oxy]-2-fluorophenyl}methyl)-1H-imidazole-5-carboxamide] | < 10
27 | N#Cc1cc(Cl)cc(Oc2c(Br)ccc(CNC(=O)c3[nH]cnc3Cl)c2F)c1 [Example 378, N-({4-bromo-3-[(3-chloro-5-cyanophenyl)oxy]-2-fluorophenyl}methyl)-4-chloro-1H-imidazole-5-carboxamide] | < 10
28 | N#Cc1cc(CN2CCOCC2)cc(Oc2c(Cl)ccc(CNC(=O)c3[nH]cnc3Cl)c2F)c1 [Example 383, 4-chloro-N-[(4-chloro-3-{[3-cyano-5-(4-morpholinylmethyl)phenyl]oxy}-2-fluorophenyl)methyl]-1H-imidazole-5-carboxamide] | < 10

Reference: patent publication US8304419B2, “Chemical compounds” (priority 2007, dated 2012)
